Active and inactive are the calls of the source. How the calls were made is not given here.
Tested on: virus-infected cells, CPE inhibition, dose response
Experiment: PubChem AID 806
Conditions: for EC90: measured here: EC90 CPE inhibition; for CC50: measured here: cytotoxicity, cell viability IC50

| SMILES | EC50 | EC90 [µM] | CC50 [µM] |
| --- | --- | --- | --- |
| CCC(C)NC(=O)C1CCCCN1S(=O)(=O)c1ccc(F)cc1 (stereo not drawn) | > 60 µM (inactive) | > 60 | > 60 |
| O=C(Nc1ccc(Cl)cn1)c1cc2ccccc2o1 | > 60 µM (inactive) | > 60 | > 60 |
| Cc1sc2nc3c4ccccc4c(NCc4ccco4)nn3c(=O)c2c1C | > 60 µM (inactive) | > 60 | 4.2 |
| O=c1[nH]c2ccccc2n1Cc1ccccc1 | > 60 µM (inactive) | > 60 | > 60 |
| COc1ccc(OC)c(Nc2ncnc3c2cnn3-c2cccc(C)c2)c1 | > 60 µM (inactive) | > 60 | > 60 |
| COc1cccc(C(=O)Nc2ccc(-c3nnc(-c4ccco4)o3)cc2)c1 | > 60 µM (inactive) | > 60 | > 60 |
| Cc1ccc(NC(=S)C2=C(O)c3sccc3N(C)S2(=O)=O)cc1 | 30.3 µM (inactive) | > 60 | > 60 |
| CCCCSc1nnc(-c2ccc(C)cc2)o1 | > 60 µM (inactive) | > 60 | > 60 |
| O=C(C1CCCCN1S(=O)(=O)c1ccccc1)N1CCN(Cc2ccccc2)CC1 (stereo not drawn) | > 60 µM (inactive) | > 60 | > 60 |
| O=C(NC1CCS(=O)(=O)C1)C1CCCCN1S(=O)(=O)c1ccc(Cl)cc1 (stereo not drawn) | > 60 µM (inactive) | > 60 | > 60 |
| C=CCSc1nnc(-c2ccc(Cl)cc2Cl)o1 | 59.2 µM (inactive) | > 60 | > 60 |
| CC1(C)Cc2c(c(N3CCOCC3)nc3sc4c(=O)[nH]cnc4c23)CS1 | > 60 µM (inactive) | > 60 | > 60 |
| COc1ccc(-c2nnc3ccc(SCC(=O)NCc4ccco4)nn23)cc1OC | > 60 µM (inactive) | > 60 | > 60 |
| Cc1cc2cc(CNC(=O)c3ccc(S(=O)(=O)N(C)C)cc3)ccc2n1C | > 60 µM (inactive) | > 60 | > 60 |
| O=C1NCCCc2c1oc1ccc(O)cc21 | > 60 µM (inactive) | > 60 | > 60 |
| O=C(Nc1nc(-c2ccccc2)cs1)C1CCCCN1S(=O)(=O)c1ccccc1 (stereo not drawn) | > 60 µM (inactive) | > 60 | > 60 |
| COc1ccc(-n2ncc3c(N4CCCc5ccccc54)ncnc32)cc1 | > 60 µM (inactive) | > 60 | > 60 |
| O=C(NCC1CCCO1)C1CCCCN1S(=O)(=O)c1ccc(F)cc1 (stereo not drawn) | > 60 µM (inactive) | > 60 | > 60 |
| O=C(CN1CCN(c2ncccn2)CC1)NCc1ccccc1 | > 60 µM (inactive) | > 60 | > 60 |
| Cc1ccc(NC(=O)c2noc3c2CCc2ccccc2-3)cc1 | > 60 µM (inactive) | > 60 | > 60 |
| O=C(CSc1nnc2sc3ccccc3n12)N1CCN(c2ccccc2)CC1 |  | > 60 | > 60 |
| CC(=O)c1cccc(NC(=O)CCS(=O)(=O)c2cccc3nsnc23)c1 | > 60 µM (inactive) | > 60 | > 60 |
| O=C(c1cc2ccccc2o1)n1nnc2ccccc21 | > 60 µM (inactive) | > 60 | > 60 |
| CN1C(=O)Cn2c1nc1ccccc12 | > 60 µM (inactive) | > 60 | > 60 |

| SMILES | EC50 | EC90 [µM] | CC50 [µM] |
| --- | --- | --- | --- |
| COc1ccccc1Cn1c(=O)c2ccccc2n2c(Sc3ncnc4sccc34)nnc12 | > 60 µM (inactive) | > 60 | > 60 |
| O=C(Nc1cccc2ncccc12)c1cc2ccccc2o1 | > 60 µM (inactive) | > 60 | > 60 |
| O=C(O)CCS(=O)(=O)c1nc(-c2cccs2)cc(C(F)(F)F)n1 | > 60 µM (inactive) | > 60 | > 60 |
| CC(C)(C)OC(=O)NCCc1nnc(SCc2ccccc2Cl)o1 | > 60 µM (inactive) | > 60 | > 60 |
| O=c1[nH]c2ccccc2n1Cc1ccc(Cl)cc1 | > 60 µM (inactive) | > 60 | > 60 |
| O=C(CSc1nnc2sc3ccccc3n12)NCc1ccco1 |  | > 60 | > 60 |
| O=C(O)CCc1nnc2n(Cc3ccc(F)cc3)c(=O)c3ccccc3n12 | > 60 µM (inactive) | > 60 | > 60 |
| CC(C)(C)NC(=O)c1cccc(NC(=O)c2ccc(NC(=O)c3ccco3)cc2)c1 | > 60 µM (inactive) | > 60 | > 60 |
| CCc1c(C)nc2[nH]nc(-c3ccccc3)n2c1=O | > 60 µM (inactive) | > 60 | > 60 |
| Cc1cc2oc(C(=O)Nc3cccnc3)c(C)c2cc1C | > 60 µM (inactive) | > 60 | > 60 |
| Cc1nc2scc(-c3ccco3)c2c(=O)n1/N=C/N(C)C | > 60 µM (inactive) | > 60 | > 60 |
| COc1ccccc1CNC(=O)c1c(O)c2cc(OC)c(OC)cc2[nH]c1=O | > 60 µM (inactive) | > 60 | > 60 |
| CCOC(=O)/C=C1\SCC(=O)N1CC(=O)NC12CC3CC(CC(C3)C1)C2 | > 60 µM (inactive) | > 60 | > 60 |
| Cc1cc(NC(=O)C2CC(c3ccc(F)cc3)=NO2)n(-c2ccccc2)n1 (stereo not drawn) | > 60 µM (inactive) | > 60 | > 60 |
| O=C(Nc1c(-c2ccccc2)nc2sccn12)c1ccccc1 | 0.634 µM | > 60 | > 60 |
| NC(=O)c1c(NC(=O)CSc2nnc(Cc3ccccc3)n2Cc2ccco2)sc2c1CCC2 | > 60 µM (inactive) | > 60 | > 60 |
| CC(=O)Nc1ccc(Nc2ncnc3c2cnn3-c2ccc(C)cc2C)cc1 | > 60 µM (inactive) | > 60 | > 60 |
| CCOC(=O)/C=C1\SCC(=O)N1CC(=O)Nc1ccc2c(c1)CCC2 | > 60 µM (inactive) | > 60 | > 60 |
| N#CCC(=O)N1CCn2c1nc1ccccc12 | > 60 µM (inactive) | > 60 | > 60 |
| CCCOc1ccc(C(=O)C(CN2CCOCC2)c2ccccc2)cc1 (stereo not drawn) | > 60 µM (inactive) | > 60 | > 60 |
| CCCN(CCC)C(=O)CCS(=O)(=O)c1cccc2nsnc12 | > 60 µM (inactive) | > 60 | > 60 |
| C#CCSc1nnc(-c2ccc(C)cc2)o1 | > 60 µM (inactive) | > 60 | > 60 |
| Cc1c(NC(=O)CSc2nnc3sc4ccccc4n23)c(=O)n(-c2ccccc2)n1C | > 60 µM (inactive) | > 60 | > 60 |
| COc1ccc(OC)c(Nc2ncnc3c2cnn3-c2ccccc2)c1 | > 60 µM (inactive) | > 60 | > 60 |

| SMILES | EC50 | EC90 [µM] | CC50 [µM] |
| --- | --- | --- | --- |
| Cc1ccc(NC(=O)C2=C(O)c3sccc3N(C)S2(=O)=O)cc1 | > 60 µM (inactive) | > 60 | > 60 |
| COC(=O)CSc1nnc([C@H](Cc2ccccc2)NC(=O)OC(C)(C)C)o1 | > 60 µM (inactive) | > 60 | > 60 |
| Cc1noc(C)c1CSc1nc2sc(C)c(C)c2c(=O)n1C1CCCC1 | > 60 µM (inactive) | > 60 | 10 |
| O=C1NC2=C(CCc3ccccc32)C(c2ccc(Br)cc2)N1 (stereo not drawn) | 4.34 µM | 27.2 | > 60 |
| CCSc1nnc(-c2ccc(OC)cc2)o1 | > 60 µM (inactive) | > 60 | > 60 |
| Cc1nn2c(C(F)(F)F)cc(-c3ccc(Cl)cc3)nc2c1C(=O)N1CCOCC1 | > 60 µM (inactive) | > 60 | > 60 |
| O=C(Nc1ccccn1)c1cc2ccccc2o1 | > 60 µM (inactive) | > 60 | 23.9 |
| Cc1cc(=O)n2c(-c3ccccc3C)n[nH]c2n1 | > 60 µM (inactive) | > 60 | > 60 |
| CS(=O)(=O)c1nc(-c2cccs2)cc(C(F)(F)F)n1 | > 60 µM (inactive) | > 60 | 30.1 |
| CSc1nnc(-c2ccc(Cl)cc2Cl)o1 | 48.5 µM (inactive) | > 60 | > 60 |
| O=C(Nc1ccccc1)c1cc2ccccc2o1 | > 60 µM (inactive) | > 60 | > 60 |
| COc1ccccc1NC(=O)c1cc2ccccc2o1 | > 60 µM (inactive) | > 60 | > 60 |
| CC(C)(C)OC(=O)N[C@@H](Cc1ccccc1)c1nnc(SCC(=O)O)o1 | > 60 µM (inactive) | > 60 | > 60 |
| CCOC(=O)c1cccc(NC(=O)CCS(=O)(=O)c2cccc3nsnc23)c1 | > 60 µM (inactive) | > 60 | > 60 |
| COc1ccc(NC(=O)c2cc3ccccc3o2)cc1 | > 60 µM (inactive) | > 60 | > 60 |
| Cc1cc(NC(=O)CSc2nnc(-c3cccnc3)n2C2CCCCC2C)no1 (stereo not drawn) | > 60 µM (inactive) | > 60 | > 60 |
| Cc1cccc(NC(=O)C2CC(=O)OC23CCCC3)c1 (stereo not drawn) | > 60 µM (inactive) | > 60 | > 60 |
| CN(C)S(=O)(=O)c1ccc(C(=O)NCc2ccccc2)cc1 | > 60 µM (inactive) | > 60 | > 60 |
| Cc1ccc(SCC(=O)Nc2ccc(-c3nnc(-c4ccco4)o3)cc2)cc1 | > 60 µM (inactive) | > 60 | > 60 |
| Cc1ccc(C2NC(=O)NC3=C2CCc2ccccc23)cc1 (stereo not drawn) | 1.75 µM | > 60 | > 60 |
| O=C1NCCCc2c1oc1cc(Br)c(O)c(Br)c21 | > 60 µM (inactive) | > 60 | > 60 |
| CCS(=O)(=O)Nc1cc(-c2nc3cccnc3s2)ccc1C | > 60 µM (inactive) | > 60 | > 60 |

Reference: PubChem BioAssay AID806 (SRMLSC, 2007)
